The values below come from US20100041642A1, “UREA INHIBITORS OF MAP KINASES” (LOCUS PHARMACEUTICALS, INC., priority 2008, published 2010).

For the assay, the target named is p38 (Homo sapiens, UniProt Q16539). The experiment in a line: Protein Kinase Assay (33P incorporation from γ-[33P]ATP into GST-ATF-2). Type of assay: biochemical. To be noted: 2 nM p38, preincubated 20 min at 30° C.; 10 uM cold ATP, 2 uM GST-ATF2, 70 min; read-out: ACT. (Activity), IC50 category in Protein Kinase Assay. Here is the method: Protein Kinase Assay. The protein kinase activity of p38 was determined by measuring the incorporation of ^33P from γ-[^33P]ATP into the GST-ATF-2 substrate, amino acids 19-96 (Upstate, N.Y. USA). The reactions were carried out in a final volume of 50 μL of 24 mM Tris-HCl buffer, pH 7.5, containing 13 mM MgCl2, 12% Glycerol, 2% DMSO, 2 mM DTT, […] of γ-[^33P]ATP (1000 Ci/mmol; 1 Ci=37 GBq) (GE Healthcare, Piscataway, N.J.), 10 uM cold ATP (GE Healthcare, Piscataway, N.J.), and 2 uM GST-ATF2. Compounds were preincubated with 2 nM p38 for 20 min at 30° C.; the reactions were initiated by the addition of GST-ATF2 and ATP and incubated for 70 min at 30° C. before being stopped by the addition of 10 μL of 600 mM phosphoric acid. The phosphorylated substrate was captured on phosphocellulose 96-well plate (Millipore MAPHNOB 10), washed with 100 mM phosphoric acid, and counted in a BeckmenCoulter LS6500 liquid scintillation counter. […] (Activity).
Sequence of p38 (Q16539 whole entry, the tested form may be a part): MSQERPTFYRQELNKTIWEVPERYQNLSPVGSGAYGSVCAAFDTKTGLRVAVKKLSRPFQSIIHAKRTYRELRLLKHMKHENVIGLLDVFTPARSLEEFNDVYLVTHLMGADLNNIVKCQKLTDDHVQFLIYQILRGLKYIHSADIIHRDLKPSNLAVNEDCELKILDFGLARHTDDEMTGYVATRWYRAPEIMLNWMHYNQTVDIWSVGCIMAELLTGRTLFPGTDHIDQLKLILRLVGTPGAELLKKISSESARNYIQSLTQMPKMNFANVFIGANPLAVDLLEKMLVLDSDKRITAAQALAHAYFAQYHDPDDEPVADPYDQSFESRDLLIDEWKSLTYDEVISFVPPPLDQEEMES
For orientation: IC50 means the concentration that inhibits the measured activity by half. `CCNC(=O)c1ccc(-c2cc(NC(=O)Nc3cc(C(C)(C)C)sc3C(=O)N3CCNC(=O)C3(C)C)ccc2C)cn1`: the IC50 was less than 100 nM. As for `Cc1ccc(NC(=O)Nc2sc(C(C)(C)C)cc2C(=O)N2CCNS(=O)(=O)CC2)cc1-c1ccc(CN2CCOCC2)nc1`, the IC50 is less than 100 nM. Take `Cc1nnc(-c2ccc(-c3cc(NC(=O)Nc4cc(C(C)(C)C)sc4C(=O)N4CCN(C)C(=O)C4(C)C)ccc3C)cn2)o1`: the half-maximal inhibitory concentration (IC50) is less than 100 nM.

Turning to `CCOc1ccc(-c2cc(NC(=O)Nc3cn(C(C)(C)C)nc3C(=O)N3CCN(C)C(=O)C3(C)C)ccc2C)cn1` [1-(1-tert-butyl-3-(2,2,4-trimethyl-3-oxopiperazine-1-carbonyl)-1H-pyrazol-4-yl)-3-(3-(6-ethoxypyridin-3-yl)-4-methylphenyl)urea], the IC50 was less than 100 nM. As to `CCc1ccc(-c2cc(NC(=O)Nc3cn(C(C)(C)C)nc3C(=O)N3CCN(C)C(=O)C3(C)C)ccc2C)cn1` [1-(1-tert-butyl-3-(2,2,4-trimethyl-3-oxopiperazine-1-carbonyl)-1H-pyrazol-4-yl)-3-(3-(6-ethylpyridin-3-yl)-4-methylphenyl)urea], the half-inhibitory concentration (IC50) was less than 100 nM.

As for `CCc1ccc(-c2cc(NC(=O)Nc3cn(C(C)(C)C)nc3C(=O)N3CCN(C)C(=O)C3(C)C)cc(F)c2C)cn1` [1-(1-tert-butyl-3-(2,2,4-trimethyl-3-oxopiperazine-1-carbonyl)-1H-pyrazol-4-yl)-3-(3-(6-ethylpyridin-3-yl)-5-fluoro-4-methylphenyl)urea], the concentration for half-maximal inhibition (IC50) was less than 100 nM. `Cc1ccc(NC(=O)Nc2cn(C(C)(C)C)nc2C(=O)N2CCN(C)C(=O)C2(C)C)cc1-c1ccc(C(C)C)nc1` [1-(1-tert-butyl-3-(2,2,4-trimethyl-3-oxopiperazine-1-carbonyl)-1H-pyrazol-4-yl)-3-(3-(6-isopropylpyridin-3-yl)-4-methylphenyl)urea]: the half-inhibitory concentration (IC50) is less than 100 nM. In the case of `Cc1ccc(NC(=O)Nc2cn(C(C)(C)C)nc2C(=O)N2CCN(C)C(=O)C2(C)C)cc1-c1ccc(CN2CCOCC2)cn1` [1-(1-tert-butyl-3-(2,2,4-trimethyl-3-oxopiperazine-1-carbonyl)-1H-pyrazol-4-yl)-3-(4-methyl-3-(5-(morpholinomethyl)pyridin-2-yl)phenyl)urea], the IC50 was less than 100 nM.

In the case of `Cc1ccc(NC(=O)Nc2cn(C(C)(C)C)nc2C(=O)N2CCN(C)C(=O)C2(C)C)cc1-c1ccc(N2CCOCC2)cn1` [1-(1-tert-butyl-3-(2,2,4-trimethyl-3-oxopiperazine-1-carbonyl)-1H-pyrazol-4-yl)-3-(4-methyl-3-(5-morpholinopyridin-2-yl)phenyl)urea], the half-maximal inhibitory concentration (IC50) is less than 100 nM. For `Cc1ccc(NC(=O)Nc2cn(C(C)(C)C)nc2C(=O)N2CCN(C)C(=O)C2(C)C)cc1-c1ccc(CN2CCOCC2)nc1` [1-(1-tert-butyl-3-(2,2,4-trimethyl-3-oxopiperazine-1-carbonyl)-1H-pyrazol-4-yl)-3-(4-methyl-3-(6-(morpholinomethyl)pyridin-3-yl)phenyl)urea], the IC50 was less than 100 nM. For `CCc1ccc(-c2cc(NC(=O)Nc3cn(C(C)(C)C)nc3C(=O)N3CCNC(=O)C3(C)C)ccc2C)cn1` [1-(1-tert-butyl-3-(2,2-dimethyl-3-oxopiperazine-1-carbonyl)-1H-pyrazol-4-yl)-3-(3-(6-ethylpyridin-3-yl)-4-methylphenyl)urea], the 50% inhibitory concentration (IC50) was less than 100 nM. As to `Cc1ccc(NC(=O)Nc2cn(C(C)(C)C)nc2C(=O)N2CCNC(=O)C2(C)C)cc1-c1ccc(C(C)C)nc1` [1-(1-tert-butyl-3-(2,2-dimethyl-3-oxopiperazine-1-carbonyl)-1H-pyrazol-4-yl)-3-(3-(6-isopropylpyridin-3-yl)-4-methylphenyl)urea], the half-maximal inhibitory concentration (IC50) is less than 100 nM. For the compound `Cc1ccc(NC(=O)Nc2cn(C(C)(C)C)nc2C(=O)N2CCNC(=O)C2(C)C)cc1-c1ccc(CN2CCOCC2)cn1` [1-(1-tert-butyl-3-(2,2-dimethyl-3-oxopiperazine-1-carbonyl)-1H-pyrazol-4-yl)-3-(4-methyl-3-(5-(morpholinomethyl)pyridin-2-yl)phenyl)urea], the IC50 is less than 100 nM. As for `Cc1ccc(NC(=O)Nc2cn(C(C)(C)C)nc2C(=O)N2CCNC(=O)C2(C)C)cc1-c1ccc(CN2CCOCC2)nc1` [1-(1-tert-butyl-3-(2,2-dimethyl-3-oxopiperazine-1-carbonyl)-1H-pyrazol-4-yl)-3-(4-methyl-3-(6-(morpholinomethyl)pyridin-3-yl)phenyl)urea], the concentration for half-maximal inhibition (IC50) was less than 100 nM. For the compound `Cc1ccc(NC(=O)Nc2cn(C(C)(C)C)nc2C(=O)N2CCNC(=O)C2(C)C)cc1-c1ccc(N2CCOCC2)nc1` [1-(1-tert-butyl-3-(2,2-dimethyl-3-oxopiperazine-1-carbonyl)-1H-pyrazol-4-yl)-3-(4-methyl-3-(6-morpholinopyridin-3-yl)phenyl)urea], the half-maximal inhibitory concentration (IC50) is less than 100 nM. On to `Cc1ccc(NC(=O)Nc2cn(C(C)(C)C)nc2C(=O)N2CCNC(=O)C2(C)C)cc1-c1cccnc1` [1-(1-tert-butyl-3-(2,2-dimethyl-3-oxopiperazine-1-carbonyl)-1H-pyrazol-4-yl)-3-(4-methyl-3-(pyridin-3-yl)phenyl)urea], for which the IC50 is less than 100 nM. Turning to `Cc1ccc(NC(=O)Nc2cn(C(C)(C)C)nc2C(=O)N2CCN(C3CCN(C)C3)C(=O)C2(C)C)cc1-c1cccnc1` (stereo not drawn) [1-(1-tert-butyl-3-(2,2-dimethyl-4-(1-methylpyrrolidin-3-yl)-3-oxopiperazine-1-carbonyl)-1H-pyrazol-4-yl)-3-(4-methyl-3-(pyridin-3-yl)phenyl)urea], the half-maximal inhibitory concentration (IC50) was less than 1000 nM. As for `Cc1ccc(NC(=O)Nc2sc(C(C)(C)C)nc2C(=O)N2CCN(C)C(=O)C2(C)C)cc1-c1ccc(CN2CCOCC2)cn1` [1-(2-tert-butyl-4-(2,2,4-trimethyl-3-oxopiperazine-1-carbonyl)thiazol-5-yl)-3-(4-methyl-3-(5-(morpholinomethyl)pyridin-2-yl)phenyl)urea], the half-inhibitory concentration (IC50) is less than 100 nM. Then `Cc1nnc(-c2ccc(-c3cc(NC(=O)Nc4sc(C(C)(C)C)nc4C(=O)N4CCN(C)C(=O)C4(C)C)ccc3C)cn2)o1` [1-(2-tert-butyl-4-(2,2,4-trimethyl-3-oxopiperazine-1-carbonyl)thiazol-5-yl)-3-(4-methyl-3-(6-(5-methyl-1,3,4-oxadiazol-2-yl)pyridin-3-yl)phenyl)urea], with less than 100 nM.

As for `Cc1ccc(NC(=O)Nc2sc(C(C)(C)C)nc2C(=O)N2CCN(C)C(=O)C2(C)C)cc1-c1ccc(CN2CCOCC2)nc1` [1-(2-tert-butyl-4-(2,2,4-trimethyl-3-oxopiperazine-1-carbonyl)thiazol-5-yl)-3-(4-methyl-3-(6-(morpholinomethyl)pyridin-3-yl)phenyl)urea], the IC50 was less than 100 nM. Regarding `CCc1ccc(-c2cc(NC(=O)Nc3cn(C4(C)CCCC4)nc3C(=O)N3CCNC(=O)C3(C)C)ccc2C)cn1` [1-(3-(2,2-dimethyl-3-oxopiperazine-1-carbonyl)-1-(1-methylcyclopentyl)-1H-pyrazol-4-yl)-3-(3-(6-ethylpyridin-3-yl)-4-methylphenyl)urea], the half-maximal inhibitory concentration (IC50) was less than 100 nM.

As to `Cc1ccc(NC(=O)Nc2sc(C(C)(C)C)cc2C(=O)N2CCN(C)C(=O)C2(C)C)cc1-c1ccc(-n2ccnc2)nc1` [1-(3-(6-(1H-imidazol-1-yl)pyridin-3-yl)-4-methylphenyl)-3-(5-tert-butyl-3-(2,2,4-trimethyl-3-oxopiperazine-1-carbonyl)thiophen-2-yl)urea], the IC50 was less than 100 nM. The same measure for `Cc1ccc(NC(=O)Nc2sc(C(C)(C)C)cc2C(=O)N2CCN(C)C(=O)C2(C)C)cc1-c1ccc(-n2cccn2)nc1` [1-(3-(6-(1H-pyrazol-1-yl)pyridin-3-yl)-4-methylphenyl)-3-(5-tert-butyl-3-(2,2,4-trimethyl-3-oxopiperazine-1-carbonyl)thiophen-2-yl)urea]: less than 100 nM; for `Cc1ccc(NC(=O)Nc2sc(C(C)(C)C)cc2C(=O)N2CCNC(=O)C2(C)C)cc1-c1ccc(N2CCC(N)C2)nc1` (stereo not drawn) [1-(3-(6-(3-aminopyrrolidin-1-yl)pyridin-3-yl)-4-methylphenyl)-3-(5-tert-butyl-3-(2,2-dimethyl-3-oxopiperazine-1-carbonyl)thiophen-2-yl)urea]: less than 100 nM; for `Cc1ccc(NC(=O)Nc2sc(C(C)(C)C)cc2C(=O)N2CCNC(=O)C2(C)C)cc1-c1ccc(CN)nc1` [1-(3-(6-(aminomethyl)pyridin-3-yl)-4-methylphenyl)-3-(5-tert-butyl-3-(2,2-dimethyl-3-oxopiperazine-1-carbonyl)thiophen-2-yl)urea]: less than 100 nM. Then `Cc1ccc(NC(=O)Nc2sc3c(c2C(=O)N2CCN(C)C(=O)C2(C)C)CCOC3)cc1-c1ccc(CN2CCOCC2)nc1` [1-(4-methyl-3-(6-(morpholinomethyl)pyridin-3-yl)phenyl)-3-(3-(2,2,4-trimethyl-3-oxopiperazine-1-carbonyl)-5,7-dihydro-4H-thieno[2,3-c]pyran-2-yl)urea], with less than 1000 nM.

For the compound `CCC(C)(C)c1cc(C(=O)N2CCN(C)C(=O)C2(C)C)c(NC(=O)Nc2ccc(C)c(-c3ccc(CN4CCOCC4)nc3)c2)s1` [1-(4-methyl-3-(6-(morpholinomethyl)pyridin-3-yl)phenyl)-3-(5-tert-pentyl-3-(2,2,4-trimethyl-3-oxopiperazine-1-carbonyl)thiophen-2-yl)urea], the half-maximal inhibitory concentration (IC50) was less than 100 nM.
